In patent publication US20170190671A1, “BIS(ARYL)CATECHOL DERIVATIVES AS HERBICIDES” (E I DU PONT DE NEMOURS AND COMPANY, priority 2014, published 2017):

Columns and labels:
[1] = system: waterhemp (common waterhemp, Amaranthus rudis); assay: Test C postemergence; format: in vivo; settings: Amaranthus tuberculatus, post-emergence, Postemergence, scale 0 to 100, read-out: Plant response rating, Waterhemp
In short: (§1)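 Visual ratings were made 13-15 days after treatment in the greenhouse, scored 0-100 against controls, where 100 means complete control. Treatments used a surfactant-containing non-phytotoxic solvent formulation, applied preemergence to seeds in loam-sand soil or postemergence to 2-18 cm plants (1-4 leaves) in peat-based medium.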

[2] = system: pigweed (Amaranthus retroflexus); assay: Test C postemergence; format: in vivo; settings: Amaranthus retroflexus, post-emergence, 336 h, Postemergence, scale 0 to 100, read-out: Plant response rating, Pigweed
In short: as §1

[3] = system: chickweed (common chickweed, Stellaria media); assay: Test C postemergence; format: in vivo; settings: Stellaria media, post-emergence, Postemergence, scale 0 to 100, read-out: Plant response rating, Chickweed
In short: as §1

[4] = system: wild oat (Avena fatua); assay: Test C postemergence; format: in vivo; settings: Avena fatua, post-emergence, Postemergence, scale 0 to 100, read-out: Plant response rating, Oat, Wild
In short: as §1

[5] = system: yellow nutsedge (Cyperus esculentus); assay: Test C postemergence; format: in vivo; settings: Cyperus, post-emergence, 336 h, Postemergence, scale 0 to 100, read-out: Plant response rating, Nutsedge, Yellow
In short: as §1

[6] = system: galium (catchweed bedstraw, Galium aparine); assay: Test C postemergence; format: in vivo; settings: Galium, post-emergence, 336 h, Postemergence, scale 0 to 100, read-out: Plant response rating, Galium
In short: as §1

[7] = system: kochia (Kochia scoparia); assay: Test C postemergence; format: in vivo; settings: Bassia scoparia, post-emergence, Postemergence, scale 0 to 100, read-out: Plant response rating, Kochia
In short: as §1

[8] = system: oilseed rape (Brassica napus); assay: Test C preemergence; format: in vivo; settings: Brassica napus, pre-emergence, scale 0 to 100, read-out: Plant response rating, Oilseed Rape
In short: as §1

[9] = system: waterhemp (common waterhemp, Amaranthus rudis); assay: Test C preemergence; format: in vivo; settings: Amaranthus tuberculatus, pre-emergence, scale 0 to 100, read-out: Plant response rating, Waterhemp
In short: as §1

[10] = system: pigweed (Amaranthus retroflexus); assay: Test C preemergence; format: in vivo; settings: Amaranthus retroflexus, pre-emergence, 336 h, scale 0 to 100, read-out: Plant response rating, Pigweed
In short: as §1

[11] = system: ragweed (common ragweed, Ambrosia elatior); assay: Test C preemergence; format: in vivo; settings: Ambrosia artemisiifolia, pre-emergence, 336 h, scale 0 to 100, read-out: Plant response rating, Ragweed
In short: as §1

[12] = system: large (Lg) crabgrass (Digitaria sanguinalis); assay: Test C preemergence; format: in vivo; settings: Digitaria sanguinalis, pre-emergence, 336 h, scale 0 to 100, read-out: Plant response rating, Crabgrass, Large
In short: as §1

[13] = system: winter wheat (Triticum aestivum); assay: Test C preemergence; format: in vivo; settings: Triticum aestivum, pre-emergence, 336 h, scale 0 to 100, read-out: Plant response rating, Wheat
In short: as §1

[14] = system: Italian ryegrass (Lolium multiflorum); assay: Test C preemergence; format: in vivo; settings: Lolium multiflorum, pre-emergence, 336 h, scale 0 to 100, read-out: Plant response rating, Ryegrass, Italian
In short: as §1

[15] = system: velvetleaf (Abutilon theophrasti); assay: Test C preemergence; format: in vivo; settings: Abutilon theophrasti, pre-emergence, scale 0 to 100, read-out: Plant response rating, Velvetleaf
In short: as §1

[16] = system: blackgrass (Alopecurus myosuroides); assay: Test C preemergence; format: in vivo; settings: Alopecurus myosuroides, pre-emergence, 336 h, scale 0 to 100, read-out: Plant response rating, Blackgrass
In short: as §1

[17] = system: giant foxtail (Setaria faberii); assay: Test C preemergence; format: in vivo; settings: Setaria faberi, pre-emergence, 336 h, scale 0 to 100, read-out: Plant response rating, Foxtail, Giant
In short: as §1

[18] = system: morningglory (Ipomoea coccinea); assay: Test C preemergence; format: in vivo; settings: Ipomoea, pre-emergence, 336 h, scale 0 to 100, read-out: Plant response rating, Morningglory
In short: as §1

[19] = system: barnyardgrass (Echinochloa crus-galli); assay: Test C preemergence; format: in vivo; settings: Echinochloa crus-galli, pre-emergence, read-out: Plant response rating, Barnyardgrass
In short: as §1

[20] = system: corn (Zea mays); assay: Test C preemergence; format: in vivo; settings: Zea mays, pre-emergence, 336 h, scale 0 to 100
In short: as §1

[21] = system: johnsongrass (Sorghum halepense); assay: Test C preemergence; format: in vivo; settings: Sorghum halepense, pre-emergence, 336 h, scale 0 to 100, read-out: Plant response rating, Johnsongrass
In short: as §1

[22] = system: soybean (Glycine max); assay: Test C preemergence; format: in vivo; settings: Glycine max, pre-emergence, scale 0 to 100, read-out: Plant response rating, Soybean
In short: as §1

N#Cc1cccc(Oc2ncc(C(F)(F)F)cn2)c1Oc1ncc(Cl)cn1 [Compound 39, 2-[(5-chloro-2-pyrimidinyl)oxy]-3-[[5-(trifluoromethyl)-2-pyrimidinyl]oxy]-benzonitrile]
pest or weed control at 31 g/ha ([1]; 31 g ai/ha): 75% | pest or weed control at 62 g/ha ([1]; 62 g ai/ha): 85% | pest or weed control at 125 g/ha ([1]; 125 g ai/ha): 95% | pest or weed control at 31 g/ha ([2]; 31 g ai/ha): 70% | pest or weed control at 62 g/ha ([2]; 62 g ai/ha): 90% | pest or weed control at 125 g/ha ([2]; 125 g ai/ha): 95% | pest or weed control at 16 g/ha ([3]; 16 g ai/ha): 60% | pest or weed control at 31 g/ha ([3]; 31 g ai/ha): 60% | pest or weed control at 62 g/ha ([3]; 62 g ai/ha): 90% | pest or weed control at 125 g/ha ([3]; 125 g ai/ha): 90% | pest or weed control at 31 g/ha ([4]; 31 g ai/ha): 5% | pest or weed control at 62 g/ha ([4]; 62 g ai/ha): 10% | pest or weed control at 125 g/ha ([4]; 125 g ai/ha): 15% | pest or weed control at 31 g/ha ([5]; 31 g ai/ha): 5% | pest or weed control at 62 g/ha ([5]; 62 g ai/ha): 5% | pest or weed control at 125 g/ha ([5]; 125 g ai/ha): 5% | pest or weed control at 16 g/ha ([6]; 16 g ai/ha): 60% | pest or weed control at 31 g/ha ([6]; 31 g ai/ha): 80% | pest or weed control at 62 g/ha ([6]; 62 g ai/ha): 80% | pest or weed control at 125 g/ha ([6]; 125 g ai/ha): 90% | pest or weed control at 16 g/ha ([7]; 16 g ai/ha): 90% | pest or weed control at 31 g/ha ([7]; 31 g ai/ha): 95% | pest or weed control at 62 g/ha ([7]; 62 g ai/ha): 100% | pest or weed control at 125 g/ha ([7]; 125 g ai/ha): 100% | plant injury at 31 g/ha ([8]; 31 g ai/ha, preemergence): 90% | plant injury at 62 g/ha ([8]; 62 g ai/ha, preemergence): 100% | plant injury at 125 g/ha ([8]; 125 g ai/ha, preemergence): 100% | plant injury at 16 g/ha ([8]; Preemergence, 16 g ai/ha): 80% | pest or weed control at 31 g/ha ([9]; 31 g ai/ha, preemergence): 100% | pest or weed control at 62 g/ha ([9]; 62 g ai/ha, preemergence): 100% | pest or weed control at 125 g/ha ([9]; 125 g ai/ha, preemergence): 100% | pest or weed control at 16 g/ha ([9]; Preemergence, 16 g ai/ha): 100% | pest or weed control at 31 g/ha ([10]; 31 g ai/ha, preemergence): 98% | pest or weed control at 62 g/ha ([10]; 62 g ai/ha, preemergence): 100% | pest or weed control at 125 g/ha ([10]; 125 g ai/ha, preemergence): 100% | pest or weed control at 16 g/ha ([10]; Preemergence, 16 g ai/ha): 100% | pest or weed control at 31 g/ha ([11]; 31 g ai/ha, preemergence): 40% | pest or weed control at 62 g/ha ([11]; 62 g ai/ha, preemergence): 65% | pest or weed control at 125 g/ha ([11]; 125 g ai/ha, preemergence): 85% | pest or weed control at 16 g/ha ([11]; Preemergence, 16 g ai/ha): 15% | pest or weed control at 31 g/ha ([12]; 31 g ai/ha, preemergence): 100% | pest or weed control at 62 g/ha ([12]; 62 g ai/ha, preemergence): 100% | pest or weed control at 125 g/ha ([12]; 125 g ai/ha, preemergence): 100% | pest or weed control at 16 g/ha ([12]; Preemergence, 16 g ai/ha): 100% | plant injury at 31 g/ha ([13]; 31 g ai/ha, preemergence): 0% | plant injury at 62 g/ha ([13]; 62 g ai/ha, preemergence): 30% | plant injury at 125 g/ha ([13]; 125 g ai/ha, preemergence): 60% | plant injury at 16 g/ha ([13]; Preemergence, 16 g ai/ha): 0% | pest or weed control at 31 g/ha ([14]; 31 g ai/ha, preemergence): 20% | pest or weed control at 62 g/ha ([14]; 62 g ai/ha, preemergence): 75% | pest or weed control at 125 g/ha ([14]; 125 g ai/ha, preemergence): 90% | pest or weed control at 16 g/ha ([14]; Preemergence, 16 g ai/ha): 0% | pest or weed control at 31 g/ha ([15]; 31 g ai/ha, preemergence): 75% | pest or weed control at 62 g/ha ([15]; 62 g ai/ha, preemergence): 100% | pest or weed control at 125 g/ha ([15]; 125 g ai/ha, preemergence): 100% | pest or weed control at 16 g/ha ([15]; Preemergence, 16 g ai/ha): 40% | pest or weed control at 31 g/ha ([16]; 31 g ai/ha, preemergence): 50% | pest or weed control at 62 g/ha ([16]; 62 g ai/ha, preemergence): 90% | pest or weed control at 125 g/ha ([16]; 125 g ai/ha, preemergence): 90% | pest or weed control at 16 g/ha ([16]; Preemergence, 16 g ai/ha): 0% | pest or weed control at 31 g/ha ([17]; 31 g ai/ha, preemergence): 95% | pest or weed control at 62 g/ha ([17]; 62 g ai/ha, preemergence): 100% | pest or weed control at 125 g/ha ([17]; 125 g ai/ha, preemergence): 100% | pest or weed control at 16 g/ha ([17]; Preemergence, 16 g ai/ha): 55% | pest or weed control at 31 g/ha ([18]; 31 g ai/ha, preemergence): 80% | pest or weed control at 62 g/ha ([18]; 62 g ai/ha, preemergence): 98% | pest or weed control at 125 g/ha ([18]; 125 g ai/ha, preemergence): 100% | pest or weed control at 16 g/ha ([18]; Preemergence, 16 g ai/ha): 45% | pest or weed control at 31 g/ha ([19]; 31 g ai/ha, preemergence, scale 0 to 100): 95% | pest or weed control at 62 g/ha ([19]; 62 g ai/ha, preemergence, scale 0 to 100): 95% | pest or weed control at 125 g/ha ([19]; 125 g ai/ha, preemergence, scale 0 to 100): 100% | pest or weed control at 16 g/ha ([19]; Preemergence, 16 g ai/ha, scale 0 to 100 (0 no effect, 100 complete control)): 65% | Corn plant response rating (crop injury, 0 = no effect, 100 = complete kill) at 31 g/ha ([20]; 31 g ai/ha, preemergence): 40% | Corn plant response rating (crop injury, 0 = no effect, 100 = complete kill) at 62 g/ha ([20]; 62 g ai/ha, preemergence): 45% | Corn plant response rating (crop injury, 0 = no effect, 100 = complete kill) at 125 g/ha ([20]; 125 g ai/ha, preemergence): 85% | Corn plant response rating (crop injury, 0 = no effect, 100 = complete kill) at 16 g/ha ([20]; Preemergence, 16 g ai/ha): 5% | pest or weed control at 31 g/ha ([21]; 31 g ai/ha, preemergence): 65% | pest or weed control at 62 g/ha ([21]; 62 g ai/ha, preemergence): 85% | pest or weed control at 125 g/ha ([21]; 125 g ai/ha, preemergence): 100% | pest or weed control at 16 g/ha ([21]; Preemergence, 16 g ai/ha): 25% | plant injury at 31 g/ha ([22]; 31 g ai/ha, preemergence): 65% | plant injury at 62 g/ha ([22]; 62 g ai/ha, preemergence): 85% | plant injury at 125 g/ha ([22]; 125 g ai/ha, preemergence): 95% | plant injury at 16 g/ha ([22]; Preemergence, 16 g ai/ha): 35% | melting point: 109 to 112 °C
